In data set [1] the target is T1, Type-1 angiotensin II receptor (Homo sapiens, UniProt P30556).
T1 sequence (P30556 whole entry): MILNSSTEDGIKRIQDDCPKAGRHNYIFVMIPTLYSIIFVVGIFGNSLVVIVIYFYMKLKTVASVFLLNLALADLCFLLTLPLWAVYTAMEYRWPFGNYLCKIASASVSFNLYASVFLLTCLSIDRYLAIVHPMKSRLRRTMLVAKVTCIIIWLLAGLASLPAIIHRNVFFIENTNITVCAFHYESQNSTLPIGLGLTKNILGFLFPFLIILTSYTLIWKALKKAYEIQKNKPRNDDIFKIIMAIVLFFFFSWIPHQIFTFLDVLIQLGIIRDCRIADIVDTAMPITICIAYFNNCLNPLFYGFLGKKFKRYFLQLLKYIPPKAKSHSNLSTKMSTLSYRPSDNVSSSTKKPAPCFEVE
Briefly: Displacement of [125I]Sar1Ile8-Ang2 from human AT1 receptor expressed in CHO-K1 cell membranes after 180 mins.

The test system of data set [2] is Rattus norvegicus. Briefly: Antihypertensive activity in spontaneously hypertensive rat assessed as mean blood pressure at 30 mg/kg, po by tail-cuff plethysmography. The data set is classed as functional, organism-based.
For data set [3], the system named is Rattus norvegicus. The data set can be described thus: Antihypertensive activity in spontaneously hypertensive rat assessed as decrease in mean blood pressure at 10 mg/kg, po within 24 hrs by tail-cuff plethysmography. The data set is classed as functional, organism-based.
The target of data set [4] is T2, Type-1 angiotensin II receptor (Oryctolagus cuniculus, UniProt P34976).
T2 sequence (P34976 whole entry): T1 sequence (P30556 whole entry) with I2M, V49A, I254V, I270V, R272H, R311K, T349S, A353V
The data set can be described thus: Antagonist activity against AT1 receptor in Japanese White rabbit aortic strips assessed as reduction in angiotension-2-induced contractile response after 60 mins by Schild's plot analysis. As to conditions: read-out: pA2 (converted).

A short description of data set [5]: Toxicity in Kunming mouse at 1.8 g/kg, po assessed as mortality after 2 weeks. The data set is classed as organism-based. The note with it: in vivo, 1800 mg/kg.
Data set [6] can be described thus: Toxicity in Kunming mouse at 1.5 g/kg, po assessed as mortality after 2 weeks. As to conditions: in vivo, 1500 mg/kg. The class given is organism-based.
Data set [7] in a line: Toxicity in Kunming mouse at 1.3 g/kg, po assessed as mortality after 2 weeks. The data set is classed as organism-based. As to conditions: in vivo, 1300 mg/kg.
The nature of data set [8]: Toxicity in Kunming mouse at 2 g/kg, po assessed as mortality after 2 weeks. The data set is classed as organism-based. The note with it: in vivo, 2000 mg/kg.
Data set [9] is described as follows: Toxicity in orally dosed Kunming mouse assessed as mortality after 2 weeks. The class given is organism-based. The note with it: in vivo, po.

Positions count from the first letter of the chain named. pIC50: −log10 of the molar value. Calls of active or inactive are those of the source. The rule behind the calls is not given here.

The pIC50 is −log10 of the IC50, conventionally taken in molar units. As for `CCCc1nc2c(C)cc(C(=S)NC[C@H](C)c3ccccc3)cc2n1Cc1ccc(-c2ccccc2-c2nnn[nH]2)cc1`, in data set [1], the pIC50 was 6.44.
`CCCSc1nc2c(C)cc(C(=O)NC[C@@H](C)c3ccccc3)cc2n1Cc1ccc(-c2ccccc2C(=O)O)cc1` showed a pIC50 in [1] of 7.06.
In the case of `CCOc1nc2c(C)cc(C(=O)NC[C@@H](C)c3ccccc3)cc2n1Cc1ccc(-c2ccccc2C(=O)O)cc1`, in data set [1], the pIC50 was 7.24.
Take `CCCCc1nc(Cl)c(CO)n1Cc1ccc(-c2ccccc2-c2nnn[nH]2)cc1`: the outcome in the data set on Rattus norvegicus [2] was Active.
Consider `CCCc1nc2c(C)cc(C(=O)N[C@@H](C)c3ccccc3)cc2n1Cc1ccc(-c2ccccc2C(=O)O)cc1`, for which, in [1], the pIC50 was 7.71. The result in the data set on Rattus norvegicus [3] was inactive.
`CCCc1nc2c(C)cc(C(=O)NC[C@@H](O)c3ccccc3)cc2n1Cc1ccc(-c2ccccc2-c2nnn[nH]2)cc1` gave a pIC50 in [1] of 6.97.
In data set [1], `CCSc1nc2c(C)cc(C(=O)NC[C@H](C)c3ccccc3)cc2n1Cc1ccc(-c2ccccc2C(=O)O)cc1` had a pIC50 of 6.31.
In data set [1], `CCCc1nc2c(C)cc(C(=O)NC[C@@H](O)c3ccccc3)cc2n1Cc1ccc(-c2ccccc2C(=O)O)cc1` showed a negative logarithm of the IC50 (pIC50) of 6.98.
In [1], `CSc1nc2c(C)cc(C(=O)NC[C@H](C)c3ccccc3)cc2n1Cc1ccc(-c2ccccc2C(=O)O)cc1` showed a pIC50 of 6.22.
Take `CCCc1nc2c(C)cc(C(=S)NC[C@@H](C)c3ccccc3)cc2n1Cc1ccc(-c2ccccc2C(=O)O)cc1`: the pIC50 in [1] is 6.13.
In data set [1], `CCOc1nc2c(C)cc(C(=O)NC[C@@H](C)c3ccccc3)cc2n1Cc1ccc(-c2ccccc2-c2nnn[nH]2)cc1` showed a pIC50 of 8.20.
As to `CCCc1nc2c(C)cc(C(=O)N[C@@H](COC)c3ccccc3)cc2n1Cc1ccc(-c2ccccc2-c2nnn[nH]2)cc1`, in data set [1], the pIC50 is 7.41. Moreover, in [4], the Kb was 0.00692 µM.
With `CCCc1nc2c(C)cc(C(=S)NC[C@@H](C)c3ccccc3)cc2n1Cc1ccc(-c2ccccc2-c2nnn[nH]2)cc1`, the pIC50 in data set [1] is 6.46.
`CCCc1nc2c(C)cc(C(=O)N[C@H](CO)c3ccccc3)cc2n1Cc1ccc(-c2ccccc2C(=O)O)cc1` had a pIC50 in [1] of 6.67. Moreover, in [4], the Kb was 0.00398 µM.
As for `CSc1nc2c(C)cc(C(=O)NC[C@@H](C)c3ccccc3)cc2n1Cc1ccc(-c2ccccc2-c2nnn[nH]2)cc1`, the pIC50 in data set [1] is 6.16.
`CCCc1nc2c(C)cc(C(=O)N[C@H](COC)c3ccccc3)cc2n1Cc1ccc(-c2ccccc2C(=O)O)cc1` had a pIC50 in data set [1] of 7.24. Further, the Kb in data set [4] is 0.00363 µM.
Consider `CCCc1nc2c(C)cc(C(=S)NC[C@H](C)c3ccccc3)cc2n1Cc1ccc(-c2ccccc2C(=O)O)cc1`, for which the pIC50 in [1] was 5.95.
The compound `CCOc1nc2c(C)cc(C(=O)NC[C@H](C)c3ccccc3)cc2n1Cc1ccc(-c2ccccc2C(=O)O)cc1` had a pIC50 in data set [1] of 8.14.
Same read-out and setting: then `CCOc1nc2c(C)cc(C(=O)NC[C@H](C)c3ccccc3)cc2n1Cc1ccc(-c2ccccc2-c2nnn[nH]2)cc1`, with 8.46; and `CCCc1nc2c(C)cc(C(=O)NC[C@H](O)c3ccccc3)cc2n1Cc1ccc(-c2ccccc2-c2nnn[nH]2)cc1`, with 6.79.
Compound `CCCc1nc2c(C)cc(C(=O)N[C@H](COC)c3ccccc3)cc2n1Cc1ccc(-c2ccccc2-c2nnn[nH]2)cc1` gave a pIC50 in [1] of 6.80. In addition, the Kb in data set [4] was 0.00316 µM.
`CCSc1nc2c(C)cc(C(=O)NC[C@H](C)c3ccccc3)cc2n1Cc1ccc(-c2ccccc2-c2nnn[nH]2)cc1` gave a pIC50 in data set [1] of 6.30.
In the case of `CCCSc1nc2c(C)cc(C(=O)NC[C@H](C)c3ccccc3)cc2n1Cc1ccc(-c2ccccc2C(=O)O)cc1`, the pIC50 in data set [1] was 7.21.
`CCCc1nc2c(C)cc(C(=O)N[C@@H](COC)c3ccccc3)cc2n1Cc1ccc(-c2ccccc2C(=O)O)cc1`: the pIC50 in data set [1] was 7.15. Besides, the Kb in [4] was 0.00316 µM.
As for `CCCc1nc2c(C)cc(C(=O)N[C@@H](CO)c3ccccc3)cc2n1Cc1ccc(-c2ccccc2-c2nnn[nH]2)cc1`, the pIC50 in data set [1] was 6.53. Besides, the Kb in [4] is 0.0158 µM.
In the case of `CCCc1nc2c(C)cc(C(=O)NCC(C)c3ccccc3)cc2n1Cc1ccc(-c2ccccc2-c2nnn[nH]2)cc1` (racemic), the pIC50 in [1] is 7.78. Further, the Kb in [4] was 0.00309 µM.
A word on the mortality: it is the percentage killed. Broadly, the LD50 is the dose at which mortality reaches 50%. For the compound `CCCCc1nc(Cl)c(CO)n1Cc1ccc(-c2ccccc2-c2nn[nH]n2)cc1` [LOSARTAN], the mortality at 336 h turned out to be 80% in data set [5], 30% in [6], 10% in [7] and 90% in data set [8]. The LD50 at 336 h in data set [9] worked out at 1570 mg/kg.
`CCCc1nc2c(C)cc(C(=O)NC[C@H](O)c3ccccc3)cc2n1Cc1ccc(-c2ccccc2C(=O)O)cc1` gave a pIC50 in data set [1] of 7.03.
In the case of `CSc1nc2c(C)cc(C(=O)NC[C@@H](C)c3ccccc3)cc2n1Cc1ccc(-c2ccccc2C(=O)O)cc1`, the pIC50 in data set [1] is 5.86.
`CSc1nc2c(C)cc(C(=O)NC[C@H](C)c3ccccc3)cc2n1Cc1ccc(-c2ccccc2-c2nnn[nH]2)cc1` had a pIC50 in data set [1] of 6.17.
In data set [1], `CCCc1nc2c(C)cc(C(=O)NCCc3ccccc3)cc2n1Cc1ccc(-c2ccccc2C(=O)O)cc1` showed a negative logarithm of the IC50 (pIC50) of 7.64. Moreover, the Kb in data set [4] is 0.00813 µM.
In data set [1], `CCSc1nc2c(C)cc(C(=O)NC[C@@H](C)c3ccccc3)cc2n1Cc1ccc(-c2ccccc2C(=O)O)cc1` gave a pIC50 of 6.10.
The same measure, in the same setting: then `CCCc1nc2c(C)cc(C(=O)N[C@H](C)c3ccccc3)cc2n1Cc1ccc(-c2ccccc2C(=O)O)cc1`, with 7.04.
As to `CCCc1nc2c(C)cc(C(=O)NC[C@H](C)c3ccccc3)cc2n1Cc1ccc(-c2ccccc2C(=O)O)cc1`, the pIC50 in data set [1] was 7.64. The Kb in data set [4] is 0.00562 µM.
The compound `CCCSc1nc2c(C)cc(C(=O)NC[C@H](C)c3ccccc3)cc2n1Cc1ccc(-c2ccccc2-c2nnn[nH]2)cc1` had a pIC50 in data set [1] of 8.85. For the same compound, the result in the data set with Rattus norvegicus [3] was inactive.
For the compound `CCCc1nc2c(C)cc(C(=O)N[C@H](CO)c3ccccc3)cc2n1Cc1ccc(-c2ccccc2-c2nnn[nH]2)cc1`, the pIC50 in data set [1] is 6.89. For the same compound, in data set [4], the Kb is 0.00776 µM.
Taken in the same sequence, the figures for `CCCc1nc2c(C)cc(C(=O)NC[C@@H](C)c3ccccc3)cc2n1Cc1ccc(-c2ccccc2-c2nnn[nH]2)cc1` were 8.30 and 0.0263 µM.
In the case of `CCCc1nc2c(C)cc(C(=O)NC[C@@H](C)c3ccccc3)cc2n1Cc1ccc(-c2ccccc2C(=O)O)cc1`, the pIC50 in data set [1] was 7.39. The Kb in data set [4] is 0.00186 µM.
In data set [1], `CCSc1nc2c(C)cc(C(=O)NC[C@@H](C)c3ccccc3)cc2n1Cc1ccc(-c2ccccc2-c2nnn[nH]2)cc1` gave a pIC50 of 6.21.
Compound `CCCc1nc2c(C)cc(C(=O)N[C@@H](CO)c3ccccc3)cc2n1Cc1ccc(-c2ccccc2C(=O)O)cc1` had a pIC50 in data set [1] of 6.30. Further, in [4], the Kb was 0.00741 µM.
Compound `CCCSc1nc2c(C)cc(C(=O)NC[C@@H](C)c3ccccc3)cc2n1Cc1ccc(-c2ccccc2-c2nnn[nH]2)cc1` showed a pIC50 in data set [1] of 8.57. The outcome in the data set with Rattus norvegicus [3] was inactive.

These data come from ChEMBL document CHEMBL3734751, “Discovery of novel, potent and low-toxicity angiotensin II receptor type 1 (AT1) blockers: Design, synthesis and biological evaluation of 6-substituted aminocarbonyl benzimidazoles with a chiral center” (Eur J Med Chem, 2015).
